In brackets after ≈: the same amount, converted by molar mass. Read-outs that look alike come from different tables or passages of the source.
Tests used:
[1] = tested on: Candida albicans ATCC 11651; assay: In vivo systemic Candida infection in mice, primary assay; parameters: species or system Candida albicans; CF-1 female mice; conditions: Candida albicans, 150 mg/kg per day, read-out: % Survival
Method in brief: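 CF-1 female mice (20 g, 10 per group) were infected IV with 0.2 ml of 1×10^7/ml C. albicans ATCC 11651, then given test compound subcutaneously at 50 or 150 mg/kg/day at 1 and 6 h post-infection and once daily for three more days. Survival was followed for 21 days against infected untreated mice; ≥70% protection at 14 days was scored active.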

[2] = tested on: Venturia inaequalis; assay: Example A apple scab; format: in vivo; conditions: read-out: disease control rating, Ex. A
Method in brief: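 Apple seedlings receive a run-off spray of compound suspended at 100 or 20 ppm. The spray liquid is purified water holding 250 ppm TREM 014, a polyhydric alcohol ester surfactant, plus acetone at 6% of final volume as the solvent.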

[3] = tested on: Cercosporidium personatum; assay: Example B Peanut Late Leafspot; format: in vivo; conditions: Nothopassalora personata, read-out: disease control rating, Ex. B
Method in brief: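 Each compound is first taken up in acetone, which makes up 6% of the final spray volume. It is then suspended in purified water with 250 ppm TREM 014 at 100 or 20 ppm. Seedlings of peanut are sprayed until run-off.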

[4] = tested on: Pyricularia oryzae; assay: whole plant or invertebrate; format: in vivo; conditions: Pyricularia oryzae, 120 h; for pest or weed control at 100 ppm: read-out: disease control rating, Ex. E, 100 PPM
[5] = tested on: Rhizoctonia solani; assay: Example F rice sheath blight; format: in vivo; conditions: Rhizoctonia solani, 144 h, read-out: disease control rating, Ex. F
Method in brief: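 Rice seedlings receive a run-off spray of compound suspended at 100 or 20 ppm. The carrier is purified water containing 250 ppm of a polyhydric alcohol ester surfactant, with acetone making up 6% of the final volume.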

[6] = tested on: Puccinia recondita; assay: Example G wheat leaf rust; format: in vivo; conditions: read-out: disease control rating, Ex. G
[7] = tested on: Sclerotium rolfsii; assay: Example M southern blight; format: in vivo; conditions: Agroathelia rolfsii, 336 h; 5 kg/ha; read-out: disease control rating, Ex. M
Procedure: […] Seeds and soil were then inoculated with a mixture of sand, cereal and mycelium of the fungus Sclerotium rolfsii, causal agent of sourthern blight, and incubated in a growth chamber at 30° C. for 14 days. Disease ratings were then made.

[8] = tested on: BARNYARDGRASS; assay: Test C rice paddy; format: in vivo, Echinochloa crusgalli; conditions: Echinochloa crus-galli, 504 h, 21 days, read-out: plant response; for pest or weed control at 64 g/ha: 0064 G/HA; for pest or weed control at 125 g/ha: 0125 G/HA; for pest or weed control at 250 g/ha: 0250 G/HA; for pest or weed control at 500 g/ha: 0500 G/HA
From the text: (§1) Sixteen cm diameter Airlite plastic pots were partially filled with Tama slit loam soil and the soil saturated with water. Japonica and Indica rice seedlings a the 2.0 to 2.5 leaf stage were transplanted into 1/3 of the pots. Into another third of the pots were transplanted seedling or sprouted tubers of water plantain (Alisma trivale), Scripus (Scirpus paludosus), Cyperus (Cyperus esculentus), and arrowhead (Sagittaria spp.). The remaining pots were planted with barnyardgrass (Echinochloa crusgalli) seeds and sprouted tubes of water chestnut (Eleocharis spp.). These weeds all represent major rice weeds or genera of weeds important in rice. Three to four days after planting, the water level was raised to 3 cm (about 1200 ml/pot) and maintained a this level throughout the test. Chemical treatments were applied directly to the paddy water, within 24 hours of raising the water, after being formulated in a nonphytotoxic solvent. The pots were maintained in the greenhouse.

[9] = tested on: ARROWHEAD; assay: Test C rice paddy; format: in vivo, Sagittaria spp.; conditions: Sagittaria, 504 h, 21 days, read-out: plant response; for pest or weed control at 64 g/ha: 0064 G/HA; for pest or weed control at 125 g/ha: 0125 G/HA; for pest or weed control at 250 g/ha: 0250 G/HA; for pest or weed control at 500 g/ha: 0500 G/HA
From the text: as §1

[10] = tested on: SCIRPUS; assay: Test C rice paddy; format: in vivo, Scirpus paludosus; conditions: Bolboschoenus maritimus, 504 h, 21 days, read-out: plant response; for pest or weed control at 64 g/ha: 0064 G/HA; for pest or weed control at 125 g/ha: 0125 G/HA; for pest or weed control at 250 g/ha: 0250 G/HA; for pest or weed control at 500 g/ha: 0500 G/HA
From the text: as §1

[11] = tested on: WATER PLAINTAIN; assay: Test C rice paddy; format: in vivo, Alisma trivale; conditions: 504 h, 21 days, read-out: plant response; for pest or weed control at 64 g/ha: 0064 G/HA; for pest or weed control at 125 g/ha: 0125 G/HA; for pest or weed control at 250 g/ha: 0250 G/HA; for pest or weed control at 500 g/ha: 0500 G/HA
From the text: as §1

[12] = tested on: RICE JAP EFF; assay: Test C rice paddy; format: in vivo, Japonica rice; conditions: Oryza sativa, 504 h, 21 days, read-out: plant response; for pest or weed control at 64 g/ha: 0064 G/HA; for pest or weed control at 125 g/ha: 0125 G/HA; for pest or weed control at 250 g/ha: 0250 G/HA; for pest or weed control at 500 g/ha: 0500 G/HA
From the text: as §1

[13] = tested on: Aspergillus fumigatus ATCC 28214; assay: In vitro antifungal MIC, microtiter broth dilution; conditions: Aspergillus fumigatus, ATCC28214, 24 h, read-out: MIC values, A. fumigatus, 30°, 24 hours
Procedure: In vitro activity (Table 5) is expressed in terms of the minimal inhibitory concentration (MIC) of the test compound which inhibits the growth of yeasts and fungi.
The target organisms, Candida albicans ATCC 11651 and Aspergillus fumigatus ATCC 28214 are standardized, [V. Bezjak, J. Clinical Micro., 21 509-512 (1984)], to a concentration of 10^7 organisms/ml and maintained at -70° until use. Test compounds are solubilized in dimethyl sulfoxide (DMSO) and diluted in Eagle's Minimum Essential Medium (EMEM) broth to achieve a final concentration of 200 μg/ml. Stock solutions of standard antifungal agents are stored at -70° and diluted in EMEM as required.
The in vitro assay utilizes a microtiter broth dilution technique [L. Polonelli and G. Morace, Mycopathologia, 86, 21-28 (1984)] and C. […] The appropriate wells are inoculated with the required organism (C. albicans at 1×10^4 organisms/ml and A. fumigatus at 5×10^5 organisms/ml) and the assay incubated at 30° for 24 hours.

| Compound | pest or weed control at 100 ppm [4] | pest or weed control at 100 ppm [5] | pest or weed control at 5000 g/ha [7] | pest or weed control at 64 g/ha [8] | pest or weed control at 125 g/ha [8] | pest or weed control at 250 g/ha [8] | pest or weed control at 500 g/ha [8] | pest or weed control at 1000 g/ha [8] | pest or weed control at 64 g/ha [9] | pest or weed control at 125 g/ha [9] | pest or weed control at 250 g/ha [9] | pest or weed control at 500 g/ha [9] | pest or weed control at 1000 g/ha [9] | pest or weed control at 64 g/ha [10] | pest or weed control at 125 g/ha [10] | pest or weed control at 250 g/ha [10] | pest or weed control at 500 g/ha [10] | pest or weed control at 1000 g/ha [10] | pest or weed control at 64 g/ha [11] | pest or weed control at 125 g/ha [11] | further results |
| --- | --- | --- | --- | --- | --- | --- | --- | --- | --- | --- | --- | --- | --- | --- | --- | --- | --- | --- | --- | --- | --- |
| C=C(c1ccccc1Cl)C(O)(Cn1cncn1)c1ccc(Cl)cc1Cl (stereo not drawn) [Example 33, 2-(2,4-Dichlorophenyl)-3-(2-chlorophenyl)-1-(1H-1,2,4-triazol-1-yl)-3-buten-2-ol] | 0% | 60% | 0% | 0% | 10% | 80% | 70% | 95% | 0% | 0% | 0% | 0% | 0% | 0% | 0% | 0% | 0% | 0% | 0% | 0% | responders at 150 mg/kg ([1]; ATCC11651, 168 h, day 7): 100%; responders at 150 mg/kg ([1]; ATCC11651, 336 h, day 14): 100%; responders at 150 mg/kg ([1]; ATCC11651, 504 h, day 21): 100%; pest or weed control at 20 ppm ([2]; 20 PPM): 47%; pest or weed control at 20 ppm ([3]; 20 PPM): 99%; pest or weed control at 20 ppm ([4]; read-out: disease control rating, Ex. E, 20 PPM): 0%; pest or weed control at 20 ppm ([5]; 20 PPM): 29%; pest or weed control at 20 ppm ([6]; 20 PPM): 100%; pest or weed control at 250 g/ha [11]: 0%; pest or weed control at 500 g/ha [11]: 0%; pest or weed control at 1000 g/ha [11]: 0%; pest or weed control at 64 g/ha [12]: 0%; pest or weed control at 125 g/ha [12]: 0%; pest or weed control at 250 g/ha [12]: 0%; pest or weed control at 500 g/ha [12]: 30%; pest or weed control at 1000 g/ha [12]: 60%; MIC [13]: 0.03 µg/mL (≈ 0.076 µM) |
| C=C(c1ccc(F)cc1)C(O)(Cn1ncnc1S)c1ccc(F)cc1F (stereo not drawn) [Example 1304] | 78% | 88% | 0% | 85% | 100% | 100% | 98% | 100% | 0% | 0% | 0% | 0% | 30% | 0% | 0% | 65% | 70% | 80% | 0% | 0% | pest or weed control at 100 ppm [2]: 100%; pest or weed control at 100 ppm [3]: 100%; pest or weed control at 100 ppm [6]: 100%; pest or weed control at 250 g/ha [11]: 0%; pest or weed control at 500 g/ha [11]: 0%; pest or weed control at 1000 g/ha [11]: 65%; pest or weed control at 64 g/ha [12]: 0%; pest or weed control at 125 g/ha [12]: 0%; pest or weed control at 250 g/ha [12]: 0%; pest or weed control at 500 g/ha [12]: 0%; pest or weed control at 1000 g/ha [12]: 40% |
| C=C(c1ccc(F)cc1)C(O)(Cn1ncnc1I)c1ccc(F)cc1F (stereo not drawn) [Example 1381] | 51% | 73% | 0% | 55% | 55% | 60% | 100% | 100% | 0% | 0% | 0% | 0% | 0% | 0% | 0% | 0% | 0% | 30% | 0% | 0% | pest or weed control at 100 ppm [2]: 100%; pest or weed control at 100 ppm [3]: 100%; pest or weed control at 100 ppm [6]: 100%; pest or weed control at 250 g/ha [11]: 0%; pest or weed control at 500 g/ha [11]: 0%; pest or weed control at 1000 g/ha [11]: 0%; pest or weed control at 64 g/ha [12]: 0%; pest or weed control at 125 g/ha [12]: 0%; pest or weed control at 250 g/ha [12]: 20%; pest or weed control at 500 g/ha [12]: 40%; pest or weed control at 1000 g/ha [12]: 60% |

— patent publication US4965280A, “Antifungal carbinols” (E. I. Du Pont de Nemours and Company, priority 1989, dated 1990)
